Legend:
[1] = system: mice treated with mitomycin C; experiment: Tests on leukopenia induced by mitomycin C; assay type: in vivo; conditions: for Number of leukocytes after 5 days / Number of leukocytes after 10 days / Number of leukocytes after 12 days / protective effect against leukopenia and toxicity of mitomycin C (in words): mice; for Number of leukocytes after 5 days / Number of leukocytes after 10 days / Number of leukocytes after 12 days / % Mice surviving after 5 days / % Mice surviving after 10 days / % Mice surviving after 12 days: mitomycin C 50 μg/mouse i.p. five days, oral carnitine(s) 300 mg/kg, quercetin 100 mg/kg; for protective effect against leukopenia and toxicity of mitomycin C (in words): oral
Procedure: To evaluate the immunostimulatory effect of the combination of propionyl L-carnitine or carnitine mixture plus quercetin, the effect of these products was evaluated on the toxic and immunosuppressive activity induced by mitomycin C.

[2] = system: platelet aggregation induced by collagen; experiment: Platelet aggregation tests (collagen-induced, Born photometric method); assay type: cell-based, human (healthy volunteers); conditions: 10 minutes' incubation
Procedure: Blood samples taken from healthy volunteers were used for these tests.
The blood samples were treated with sodium citrate and centrifuged for 8 minutes at 100 rpm. The number of platelets was counted and brought to a fixed level of […] by adding platelet poor plasma (PPP) where necessary.
Platelet aggregation was induced using collagen (2.5 μg/ml, 5 μg/ml) as the aggregating agent and determined photometrically according to the method described by Born (Born G. V. R., Nature, 194, 927, 1962).
Platelet aggregation was measured in baseline conditions and after 10 minutes' incubation with quercetin or propionyl L-carnitine or with a combination of quercetin and propionyl L-carnitine in the same amounts.
The propionyl L-carnitine doses were 10 μg and 20 μg/ml, while the quercetin doses were 0.1 μg and 0.25 μg/ml.

[3] = system: hypercholesterolaemic rabbits; experiment: Antiatherosclerotic activity tests: plasma lipoprotein concentrations; assay type: in vivo, New Zealand rabbits; conditions: thirty days, carnitine(s) 400 mg/kg, quercetin 50 mg/kg
Source text: (§1) In these tests, experimental atherosclerosis was induced in rabbits by administering 0.5% of cholesterol by weight together with the standard diet.
After thirty days' treatment, a blood sample was taken from the central artery of the ear in each animal and used to assay the lipoproteins present according to the method described by Hatch (Hatch F. T., Advan. Lipid Res., 6, 1, 1968).

[4] = system: hypercholesterolaemic rabbits; experiment: Antiatherosclerotic activity tests: liver total cholesterol and triglycerides; assay type: in vivo, New Zealand rabbits; conditions: thirty days, carnitine(s) 400 mg/kg, quercetin 50 mg/kg
Procedure: The liver was then removed from each animal and used to assay total cholesterol and triglycerides according to the method of Dehoff (Dehoff J. L., Clin. Chem., 24, 433, 1978) and Levy (Levy A., Advances in Automated Analysis, 497-Thurman-Miami, 1972). Arteriosclerotic lesions at the level of the heart and aorta were assessed according to the Klurfield method ([…]. Med., 10, 35, 1979), grading them from I to IV according to the severity of the damage detected.

[5] = system: experimental atherosclerosis in rabbits; experiment: Antiatherosclerotic activity tests: biochemical and histological parameters, arteriosclerotic lesions of heart and aorta; assay type: in vivo, New Zealand rabbits; conditions: rabbit, cholesterol-enriched diet, thirty days; carnitine(s) 400 mg/kg, quercetin 50 mg/kg
Procedure: as §1
The liver was then removed from each animal and used to assay total cholesterol and triglycerides according to the method of Dehoff (Dehoff J. L., Clin. Chem., 24, 433, 1978) and Levy (Levy A., Advances in Automated Analysis, 497—Thurman—Miami, 1972). Arteriosclerotic lesions at the level of the heart and aorta were assessed according to the Klurfield method (Klurfield D. M., J. Med., 10, 35, 1979), grading them from I to IV according to the severity of the damage detected.
The greatest degree of protective activity, however, is that achieved when carnitine and quercetin are administered in combination.

[6] = Toxicology, single oral administration in the rat; conditions: up to 4 g/kg
[7] = system: anaphylactic shock in guinea-pigs; experiment: Anaphylactic shock tests (horse serum sensitisation); assay type: in vivo; conditions: oral; for Surviving/treated animals: carnitine(s) 300 mg/kg, quercetin 50 mg/kg
Procedure: These tests were performed using male albino guinea-pigs with a mean weight of 300 g; the animals received intraperitoneal injections of 1 cc of horse serum diluted 1:10.
After twenty-five days, intravenous injection of 1 cc of horse serum triggered anaphylactic shock with onset of bronchospasm and death of the animals. Five days before the shock-triggering injection, the sensitised animals were treated orally either with propionyl L-carnitine (300 mg/kg), or with carnitine mixture (300 mg/kg), or with quercetin (50 mg/kg), or with various combinations of these compounds.

[8] = system: oedema induced in the rat paw by carrageenin; experiment: Anti-inflammatory activity tests: carrageenin-induced oedema of the rat paw; assay type: in vivo; conditions: for anti-oedema / anti-inflammatory effect (in words): rat paw, carrageenin
Procedure: To this end, 0.1 cc of a 1% carrageenin solution (Sigma, St, Louis, USA) were injected in the subplantar zone of the rat paw. The volume of oedema of the paw was measured by means of a mercury plethysmograph at intervals of one hour over the four-hour period following injection of carrageenin. One hour prior to injection, of carrageenin the animals received oral administrations either of propionyl L-carnitine (300 mg/kg and 150 mg/kg), or carnitine mixture (acetyl L-carnitine, propionyl L-carnitine, isovaleryl L-carnitine; 300 mg/kg and 150 mg/kg), or quercetin (100 mg/kg and 50 mg/kg), or various combinations of these compounds.

[9] = rat, oral, carnitine(s) 300 mg/kg and/or quercetin 100 mg/kg
[10] = rat, oral, carnitine(s) 150 mg/kg and/or quercetin 50 mg/kg

Row | Compound | Number of leukocytes after 5 days [1] | Number of leukocytes after 10 days [1] | Number of leukocytes after 12 days [1] | protective effect against leukopenia and toxicity of mitomycin C (in words) [1] | % Mice surviving after 5 days [1] | % Mice surviving after 10 days [1] | % Mice surviving after 12 days [1] | Plasma HDL [3] | Plasma LDL [3] | Plasma VLDL [3] | Liver triglycerides [4] | biochemical and histological parameters of experimentally induced atherosclerosis [5] | protection against death by anaphylactic shock (in words) [7] | Surviving/treated animals [7] | anti-oedema / anti-inflammatory effect (in words) [8] | % reduction of carrageenin-induced oedema after 1 h [8, 9] | % reduction of carrageenin-induced oedema after 2 h [8, 9] | % reduction of carrageenin-induced oedema after 3 h [8, 9] | further results
1 | CCC(=O)O[C@H](CC(=O)[O-])C[N+](C)(C)C [Propionyl L-carnitine, propionyl L-carnitine] | 6,000 ± 310 | 5,400 ± 280 | 2,100 ± 125 | modest | 60% | 45% | 30% | 26.4 ± 3.9 mg/dL | 380 ± 21.5 mg/dL | 855 ± 32.5 mg/dL | 165 ± 14.5 mg/g | capable of reducing | no protective effect | 2/10 | modest anti-oedema effect | 12 ± 0.1% | 10 ± 0.2% | 6 ± 0.5% | modification of platelet aggregating action induced by collagen ([2]; propionyl L-carnitine 10 μg and 20 μg/ml): did not prove capable of modifying; signs of toxicity [6]: without any signs of toxicity
2 | O=c1c(O)c(-c2ccc(O)c(O)c2)oc2cc(O)cc(O)c12 [Quercetin, quercetin] | 5,600 ± 480 | 4,800 ± 410 | 2,800 ± 310 | modest | 70% | 30% | 30% | 28.6 ± 3.8 mg/dL | 298 ± 30.1 mg/dL | 816 ± 37.5 mg/dL | 130 ± 14.5 mg/g | good inhibitory activity | no protective effect | 3/10 | modest anti-oedema effect | 18 ± 1.2% | 22 ± 2.5% | 20 ± 19% | reduction of collagen-induced platelet aggregation ([2]; quercetin 0.25 μg): 50%; % reduction of carrageenin-induced oedema after 1 h [8, 10]: 8 ± 0.6%; % reduction of carrageenin-induced oedema after 2 h [8, 10]: 10 ± 0.2%; % reduction of carrageenin-induced oedema after 4 h [8, 9]: 18 ± 1.5%
